Data on one molecule can be found in US8943743B2, “Device for attracting and controlling the coffee berry borer, Hypothenemus hampei (Coleoptera: Scolytidae)” (Plato Industries Ltd, priority 2008, dated 2015).

For test [1], the system named is coffee berry borer (CBB), Hypothenemus hampei. The test is described as follows: Second field study 2008 near Naranjo, Costa Rica: damaged berries 70 days after treatment. The settings on record: Costa Rica 2008, 2500 m^2 blocks, 20 TMBs per hectare, 70 days after treatments were initiated. It is filed as in vivo. As for the experimental part:
A second study was conducted in 2008 near Naranjo, Costa Rica. In this study, blocks treated with either blue and red TMBs had fewer damaged berries 70 days after treatments were initiated than did the untreated block or the block treated with endosulfan. Each block was 2500 m^2 in size and was treated with 20 TMBs per hectare.

The test system is the same in test [2]. Kind of test: Third field study 2008 near Alajuela, Costa Rica: damaged berries 70 days after treatment. It is filed as in vivo. The settings on record: Costa Rica 2008, 2500 m^2 blocks, 20 TMBs per hectare, 70 days after treatments were initiated. As for the experimental part:
A third study was conducted in 2008 near Alajuela, Costa Rica. In this study, 2500 m^2 blocks treated with either blue and red TMBs at a rate of 20 TMBs per hectare had fewer damaged berries 70 days after treatments were initiated than did the untreated block, the block treated with endosulfan, or the block treated with red plastic traps.

In the case of `O=S1OCC2C(CO1)C1(Cl)C(Cl)=C(Cl)C2(Cl)C1(Cl)Cl` (centres unmarked) [endosulfan], the “Mean % infested berries” value in test [1] came out at 1.15%; in test [2], 5.9%.
